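Tested at 5 concentrations; 48 h exposure; 96-well plates; endpoints linearly interpolated, else capped at highest concentration. At the GI50, growth is halved.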 Active and inactive are the calls of the source. No stated cut-off is given here; in the data, active = GI50 up to about 1.1 µM and inactive = higher.
Assays:
Assay in all cases: NCI anticancer screen, dose series, 48 h
MDA-N = tested on: MDA-N
T47D = tested on: T47D
SN12C = tested on: SN12C
HCT-116 = tested on: HCT-116
IGROV-1 = tested on: IGROV-1
OVCAR-3 = tested on: OVCAR-3
UACC-62 = tested on: UACC-62
BT-549 = tested on: BT-549
NCI/ADR-RES = tested on: NCI/ADR-RES
Hs-578T = tested on: Hs-578T
EKVX = tested on: EKVX
HCT-15 = tested on: HCT-15
HT-29 = tested on: HT-29
SK-MEL-2 = tested on: SK-MEL-2
NCI-H226 = tested on: NCI-H226
SF-539 = tested on: SF-539
CAKI-1 = tested on: CAKI-1
OVCAR-5 = tested on: OVCAR-5
SNB-75 = tested on: SNB-75
RXF 393 = tested on: RXF 393

Compound	GI50 (MDA-N)	GI50 (T47D)	GI50 (SN12C)	GI50 (HCT-116)	GI50 (IGROV-1)	GI50 (OVCAR-3)	GI50 (UACC-62)	GI50 (BT-549)	GI50 (NCI/ADR-RES)	GI50 (Hs-578T)	GI50 (EKVX)	GI50 (HCT-15) [µM]	GI50 (HT-29)	GI50 (SK-MEL-2)	GI50 (NCI-H226)	GI50 (SF-539)	GI50 (CAKI-1)	GI50 (OVCAR-5)	GI50 (SNB-75)	GI50 (RXF 393)
O=C(CCN1CCOCC1)c1ccc(Oc2ccc(F)cc2)cc1	23.8 µM (inactive)	18.9 µM (inactive)	30.9 µM (inactive)	22.5 µM (inactive)	19.5 µM (inactive)	22.3 µM (inactive)	18.6 µM (inactive)	18.2 µM (inactive)	26.9 µM (inactive)	19.9 µM (inactive)	19 µM (inactive)	19	18.7 µM (inactive)	23.6 µM (inactive)	26 µM (inactive)	17.9 µM (inactive)	18 µM (inactive)	24.2 µM (inactive)	19.6 µM (inactive)	–
NNC1=Nc2ccc(Cl)cc2C(=S)N2CSCC12 (configuration not stated)	> 100 µM (inactive)	> 100 µM (inactive)	> 100 µM (inactive)	> 100 µM (inactive)	> 100 µM (inactive)	> 100 µM (inactive)	> 100 µM (inactive)	> 100 µM (inactive)	> 100 µM (inactive)	> 100 µM (inactive)	> 100 µM (inactive)	> 100	> 100 µM (inactive)	> 100 µM (inactive)	> 100 µM (inactive)	–	> 100 µM (inactive)	> 100 µM (inactive)	> 100 µM (inactive)	> 100 µM (inactive)
CCCCCCCCCCCC(=O)OCC(O)CO (configuration not stated) [GLYCEROL MONOLAURATE]	88.9 µM (inactive)	69.3 µM (inactive)	> 100 µM (inactive)	> 100 µM (inactive)	–	76.9 µM (inactive)	> 100 µM (inactive)	36.4 µM (inactive)	> 100 µM (inactive)	> 100 µM (inactive)	> 100 µM (inactive)	> 100	31.2 µM (inactive)	> 100 µM (inactive)	> 100 µM (inactive)	> 100 µM (inactive)	> 100 µM (inactive)	> 100 µM (inactive)	> 100 µM (inactive)	–
O=[N+]([O-])c1cccc(-c2ncnc(-c3cccc([N+](=O)[O-])c3)n2)c1	> 100 µM (inactive)	81.8 µM (inactive)	> 100 µM (inactive)	> 100 µM (inactive)	> 100 µM (inactive)	35.9 µM (inactive)	27.4 µM (inactive)	32.2 µM (inactive)	> 100 µM (inactive)	51.2 µM (inactive)	> 100 µM (inactive)	–	> 100 µM (inactive)	51.5 µM (inactive)	> 100 µM (inactive)	–	18.4 µM (inactive)	> 100 µM (inactive)	26.7 µM (inactive)	18.5 µM (inactive)
Nc1nc(-c2ccccc2)cc(-c2ccc(F)cc2)c1-c1ccc(Cl)cc1	> 100 µM (inactive)	> 100 µM (inactive)	> 100 µM (inactive)	> 100 µM (inactive)	> 100 µM (inactive)	> 100 µM (inactive)	> 100 µM (inactive)	> 100 µM (inactive)	> 100 µM (inactive)	73.3 µM (inactive)	> 100 µM (inactive)	> 100	13.2 µM (inactive)	> 100 µM (inactive)	> 100 µM (inactive)	–	> 100 µM (inactive)	> 100 µM (inactive)	> 100 µM (inactive)	> 100 µM (inactive)
Cc1cn(CCC(N)C(=O)O)c(=O)[nH]c1=O (configuration not stated)	> 100 µM (inactive)	> 100 µM (inactive)	> 100 µM (inactive)	> 100 µM (inactive)	> 100 µM (inactive)	> 100 µM (inactive)	> 100 µM (inactive)	> 100 µM (inactive)	> 100 µM (inactive)	> 100 µM (inactive)	> 100 µM (inactive)	> 100	> 100 µM (inactive)	> 100 µM (inactive)	> 100 µM (inactive)	> 100 µM (inactive)	–	> 100 µM (inactive)	> 100 µM (inactive)	> 100 µM (inactive)
